Results from patent publication US8901125B2, “Substituted bicyclic alkoxy pyrazole analogs as allosteric modulators of mGluR5 receptors” (Vanderbilt University, priority 2012, dated 2014).

Assays:
human mGluR5a receptor = human mGluR5a receptor (Homo sapiens, UniProt P41594); assay: Cell-based functional assay (Ca2+ mobilization, FDSS), potentiation of glutamate EC20 response; details: H10H cell line; for Emax: maximum % effect in the concentration-response curve as percent of maximal glutamate response, glutamate EC20; for EC50: potentiation in presence of glutamate EC20, concentration in mol/L
Chain of human mGluR5a receptor (P41594 21-1180 isoform P41594-2 limits assumed): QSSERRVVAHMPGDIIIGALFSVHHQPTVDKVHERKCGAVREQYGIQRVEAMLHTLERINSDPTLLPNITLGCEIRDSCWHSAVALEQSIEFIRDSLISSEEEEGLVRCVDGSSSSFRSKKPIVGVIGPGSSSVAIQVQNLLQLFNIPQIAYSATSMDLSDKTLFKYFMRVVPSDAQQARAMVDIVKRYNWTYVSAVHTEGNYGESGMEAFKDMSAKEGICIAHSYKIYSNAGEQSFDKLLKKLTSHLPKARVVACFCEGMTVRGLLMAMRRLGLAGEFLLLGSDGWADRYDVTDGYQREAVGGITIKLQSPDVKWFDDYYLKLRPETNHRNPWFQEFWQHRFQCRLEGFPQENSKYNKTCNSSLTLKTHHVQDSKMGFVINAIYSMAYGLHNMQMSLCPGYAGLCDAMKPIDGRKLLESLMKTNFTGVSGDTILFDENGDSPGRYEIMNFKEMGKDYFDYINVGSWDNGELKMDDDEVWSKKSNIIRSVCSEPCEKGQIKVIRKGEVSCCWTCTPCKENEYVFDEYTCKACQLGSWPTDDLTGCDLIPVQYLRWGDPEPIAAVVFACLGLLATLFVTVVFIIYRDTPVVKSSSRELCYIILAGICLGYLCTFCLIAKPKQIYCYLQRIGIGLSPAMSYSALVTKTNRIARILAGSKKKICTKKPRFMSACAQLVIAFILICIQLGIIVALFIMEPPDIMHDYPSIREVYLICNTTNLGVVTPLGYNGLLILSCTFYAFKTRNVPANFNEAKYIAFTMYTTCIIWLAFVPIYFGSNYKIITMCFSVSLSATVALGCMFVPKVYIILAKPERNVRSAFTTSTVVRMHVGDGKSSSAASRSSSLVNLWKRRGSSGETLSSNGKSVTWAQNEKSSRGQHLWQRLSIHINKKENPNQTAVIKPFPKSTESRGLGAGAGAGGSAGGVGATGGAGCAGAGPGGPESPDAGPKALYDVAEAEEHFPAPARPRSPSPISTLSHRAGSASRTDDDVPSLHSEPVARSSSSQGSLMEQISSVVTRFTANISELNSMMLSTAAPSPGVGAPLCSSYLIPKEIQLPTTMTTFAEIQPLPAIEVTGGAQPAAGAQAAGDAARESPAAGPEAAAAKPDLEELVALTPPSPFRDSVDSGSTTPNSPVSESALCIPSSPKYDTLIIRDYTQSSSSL
Description: Human mGluR5a cDNA in pCMV6-XL6 mammalian expression plasmid was purchased from OriGene Technologies, Inc. (catalogue number SC326357) and subcloned into pcDNA3.1(−). Human embryonic kidney (HEK)293A cells were then transfected with human mGluR5a pcDNA3.1(−) using LipofectAmine-2000 (Invitrogen) and monoclones were selected and tested for functional response using a Ca^2+ mobilization assay. Monoclones were named for the species (“H” for human) plus the location on the plate (e.g. “10H”).
HEK cells transfected with the human mGluR5a receptor (H10H or H12H cell line) were plated at 15,000 cells/well in clear-bottomed poly-D-lysinecoated assay plates (BD Falcon) in glutamate-glutamine-free growth medium and incubated overnight at 37° C. and 5% CO2. Cell-lines used were either the H10H or H12H cell-lines expressing the human mGluR5 receptor. The following day, the growth medium was removed and the cells were washed with assay buffer containing 1× Hank's balanced salt solution (Invitrogen, Carlsbad, Calif.), 20 mM HEPES, 2.5 mM probenecid, pH 7.4 and left with 20 μL of this reagent. Following this step, the cells were loaded with calcium indicator dye, fluo-4 AM, to a final concentration of 2 μM and incubated for 40-45 min at 37° C. The dye solution was removed and replaced with assay buffer. Cell plates were held for 10-15 min at room temperature and were then loaded into the Functional Drug Screening System 6000 (FDSS 6000, Hamamatsu, Japan).
After establishment of a fluorescence baseline for about 3 seconds, the compounds of the present invention were added to the cells, and the response in cells was measured. 2.3 minutes later an EC20 concentration of the mGluR5 receptor agonist glutamate was added to the cells, and the response of the cells was measured for about 1.7 minutes. All test compounds were dissolved and diluted to a concentration of 10 mM in 100% DMSO and then serially diluted into assay buffer for a 2× stock solution in 0.6% DMSO; stock compounds were then added to the assay for a final DMSO concentration of 0.3% after the first addition to the assay well. Calcium fluorescence measures were recorded as fold over basal fluorescence; raw data was then normalized to the maximal response to glutamate. Potentiation of the agonist response of the mGluR5 receptor in the present invention was observed as an increase in response to submaximal concentrations of glutamate in the presence of compound compared to the response to glutamate in the absence of compound.
The concentration-response curves of compounds of the present invention, obtained in the presence of EC20 of mGluR5 receptor agonist glutamate to determine positive allosteric modulation, were generated using Microsoft Excel with IDBS XLFit add-ins. The raw data file containing all time points was used as the data source in the analysis template. This was saved by the FDSS as a tab-delimited text file. Data were normalized using a static ratio function (F/F0) for each measurement of the total 350 values per well divided by each well's initial value. Data was then reduced as to peak amplitudes (Max Initial Min) using a time range that starts approximately 1 second after the glutamate EC20 addition and continues for approximately 40 seconds. This is sufficient time to capture the peak amplitude of the cellular Calcium response. Individual amplitudes were expressed as % EMax by multiplying each amplitude by 100 and then dividing the product by the mean of the amplitudes derived from the glutamate ECMax-treated wells. pEC50 values for test compounds were generated by fitting the normalized values versus the log of the test compound concentration (in mol/L) using a 4 parameter logistic equation where none of the parameters were fixed. Each of the three values collected at each concentration of test compound were weighted evenly. Individual values falling outside the 95% prediction limits of the curve fit were automatically excluded from the fit. […]

[1] = test system: amphetamine-induced hyperlocomotion; assay: Reversal of amphetamine-induced hyperlocomotion in rats; type: in vivo, male Sprague-Dawley rats; details: 10 mg/kg p.o.; amphetamine 1 mg/kg s.c.; intervals 13-24; rat
Procedure: The study was carried out using male Sprague-Dawley rats weighing 225 g-275 g, between 2-3 months old (Harlan, Inc., Indianapolis, Ind.). They were kept in the animal care facility certified by the American Association for the Accreditation of Laboratory Animal Care (AALAC) under a 12-hour light/dark cycle (lights on: 6 a.m.; lights off: 6 p.m.) and had free access to food and water. The experimental protocols performed during the light cycle were approved by the Institutional Animals Care and Use Committee of Vanderbilt University and conformed to the guidelines established by the National Research Council Guide for the Care and Use of Laboratory Animals
Locomotor activity was assessed as mean distance traveled (cm) in Smart Open Field locomotor activity test chambers (Hamilton-Kinder, San Diego, Calif.) with 16×16 photobeams with chambers measuring 43.2 cm (Length)×43.2 cm (Width)×30.5 cm (Height) (Med Associates, St. Albans, Vt.). The animals were habituated for 30 min and then dosed with vehicle or test compound. The rats were then placed into cages. At 60 min, all rats were injected subcutaneously with 1 mg/kg amphetamine or vehicle and then monitored for an additional 60 min. Animals are monitored for a total of 120 minutes.
Data are expressed as the mean (±SEM) distance traveled recorded in 5 min intervals over the test period. The data was analyzed using repeated measures analysis of variance (ANOVA) followed by post-hoc testing using Dunnett's test, when appropriate. A difference was considered significant when p≦0.05. The data for the dose-response studies were analyzed by a between-group analysis of variance. If there was a main effect of dose, then each dose group was compared with the vehicle amphetamine group. The calculations were performed using JMP IN 8 (SAS Institute, Cary, N.C.) statistical software and graphed using SigmaPlot9 (Saugua, Mass.).
Amphetamine sulfate was obtained from Sigma (Cat#A5880-1G; St. Louis, Mo.) and 10 mg was dissolved in 10 ml of water. […]

| melting point [°C] | Emax (human mGluR5a receptor) [%] | EC50 (human mGluR5a receptor) [nM] | Compound | % Reversal of amphetamine-induced hyperlocomotion [1] [%] |
| --- | --- | --- | --- | --- |
| 116.4 | 45 | 95.5 | O=C1c2cc(OCc3cccc(F)c3)nn2CCN1c1ccc(F)cc1 [Example B26, 2-((3-fluorobenzyl)oxy)-5-(4-fluorophenyl)-6,7-dihydropyrazolo[1,5-a]pyrazin-4(5H)-one] | 25 |
| 167.1 | 55 | 123 | Cc1nc(N2CCn3nc(OCc4ccccc4)cc3C2=O)ccc1F [Example B17, 2-(benzyloxy)-5-(5-fluoro-6-methylpyridin-2-yl)-6,7-dihydropyrazolo[1,5-a]pyrazin-4(5H)-one] | 14 |
| 115.3 | 61 | 25.7 | CN(C)c1cccc(N2CCn3nc(OCc4ccccc4)cc3C2=O)n1 [Example B15, 2-(benzyloxy)-5-(6-(dimethylamino)pyridin-2-yl)-6,7-dihydropyrazolo[1,5-a]pyrazin-4(5H)-one] | 32 |
| 152.1 | 53 | 174 | Cc1cccc(N2CCn3nc(OCc4ccccc4)cc3C2=O)n1 [Example B14] |  |
| 151.9 | 44 | 229 | O=C1c2cc(OCc3ccccc3)nn2CCN1c1ccccc1F [Example B6] |  |
| 134.8 | 53 | 174 | CC1CN(c2ccc(F)cc2)C(=O)c2cc(OCc3ccccc3)nn21 (single isomer, unassigned) [Example B10] |  |
| 140.2 | 36 | 1200 | COc1ccccc1COc1cc2n(n1)CCN(c1ccc(F)cc1)C2=O [Example B29] |  |
| 223 | 55 | 251 | COc1nc(N2CCn3nc(OCc4ccccc4)cc3C2=O)ncc1F [Example B21] |  |
| 229.9 | 52 | 87.1 | C[C@@H]1Cn2nc(OCc3ccccc3)cc2C(=O)N1c1ccc(F)cc1 [Example B9] |  |
| 140.2 to 140.7 | 47 | 550 | O=C1c2cc(OCc3ccccc3)nn2CCCN1c1ccc(F)cc1 [Example B49, 2-(benzyloxy)-5-(4-fluorophenyl)-5,6,7,8-tetrahydro-4H-pyrazolo[1,5-a][1,4]diazepin-4-one] |  |
